Test results as given in US12559784B2 (priority 2023, dated 2026).
Values joined by “and” are separate entries in the source; they are usually repeats but may differ in a detail not shown here. Equal values may be shown once. Read-outs that look alike come from different tables or passages of the source.

Tests used:
alkaline phosphatase [1] = type: biochemical
Experimental: New stocks were made the of the 1:100 alkaline phosphatase reaction reagents.
The conditions included: 1:100 dilution of alkaline phosphatase reaction reagent with two solvents (buffered saline and ethanol), dosing in 0.5 mL microcentrifuge tubes with 20 μL of chemical added to 180 μL of reaction reagent, and incubating with p-Nitrophenyl phosphate disodium salt (PNPP) substrate for 1-hour.

skin = conditions: cited from earlier work
alkaline phosphatase [2] = experiment: Alkaline phosphatase experiment, seventh week: 1:100 vs 1:1000 dilution, room temperature vs 37° C.; conditions: for OD405 reading, 1:1000 ethanol solvent condition (FIG. 9B): 4-hour exposure, 1-hour PNPP
Experimental: Preparation • 1. Alkaline phosphatase reaction reagent • a. 1:100 • i. PBS: Take 400 μL of AP (1:10) stock solution, add to 3.6 mL PBS. Vortex mix and then invert to mix 10 times • ii. […] Vortex mix and then invert to mix 10 times • b. 1:1000 • i. PBS: Take 400 μL of AP (1:100) stock solution, add to 3.6 mL PBS. Vortex mix and then invert to mix 10 times • ii. […] Vortex mix and then invert to mix 10 times • 2. Prepare 0.5 mL microcentrifuge tubes for dosing • a. One set for room temperature, one set for 37° C. • 3. Prepare 96-well plates for PNPP reading (3 wells for each test chemical) • a. Aliquot with 200 μL PNPP Conditions • 1. 1:100 in PBS at RT • 2. […] 1:100 in PBS at 37° C. • 4. […] 1:1000 in PBS at RT • 6. […] 1:1000 in PBS at 37° C. • 8. […] Procedure • 1. In each microcentrifuge tube for each condition, add 180 μL of the corresponding AP reaction reagent • 2. Add 20 μL of the test chemical to each microcentrifuge tube • 3. Incubate for 4 hours (one set at room temperature; one set at 37° C.) • 4. To prepared 96-well plates with 200 μL PNPP aliquoted, add 20 μL of each microcentrifuge tube to the corresponding well • 5.

alkaline phosphatase [3] = conditions: 30 μL chemical in 300 μL reagent 1:100, 4 hours room temperature, 3 mL PNPP 1 hour
Experimental: We changed the test chemical dosage to 30 μL and the alkaline phosphatase reaction reagent to 300 μL, but kept the incubation to 4 hours at room temperature.
PBS: Take 4 mL of AP (1:10) stock solution, add to 36 mL PBS. Vortex mix and then invert to mix 10 times • ii. […] Vortex mix and then invert to mix 10 times • b. PBS (lx) • c. […] Prepare 4 mL glass vials for dosing • a. Four sets • i. R1+ (PBS-AP) • ii. R1− (PBS) • iii. […] Prepare 96-well plates for PNPP reading (3 wells for each test chemical) Procedure • 1. Aliquot 300 μL of each reaction reagent to 4 mL glass vials. • 2. Add 30 μL of the test sample to each 4 mL glass vial. • 3. Incubate at room temperature for 4 hours. • 4. Aliquot 3 mL of PNPP to each 4 mL glass vial, let sit for 1 hr. • a. Aliquot 750 μL into the 4 mL glass vial to stop the reaction. • 5.

[4] = cited from earlier work
alkaline phosphatase [5] = type: biochemical; conditions: PBS; 18 hours room temperature, PNPP 1 hour
Description: Our next study compared different dilutions of the original alkaline phosphatase source (1:10 [Activity: 1,000 units] and 1:100 [100 units]) and two sources of alkaline phosphatase, both purchased from Sigma Aldrich (St. Louis, MO). […] The five conditions for this study included original alkaline phosphatase (1:1), original alkaline phosphatase (1:10), original alkaline phosphatase (1:100), new alkaline phosphatase (1:1), and the blanks (phosphate buffered saline (PBS)). […] The two controls contained ink to determine if there would be any background effect.
Preparation • 1. Alkaline phosphatase reaction reagent • a. Original AP • i. Add 1 mL PBS into AP vial, pipette re-pipette 10 times, then invert with cap on, to mix well. Take this 1 mL and add to 50 mL conical tube filled with 40 mL PBS. Invert to mix 10 times, vortex mix, let sit 2 minutes, invert to mix again 10 times • ii. Prepare 2 more 50 mL conical tubes • 1. 1:10 • a. […] 1:100 • a. Take 4 mL of solution made above, add to 36 mL PBS. […] New AP • i. Add 400 mg into a 50 mL conical tube filled with 40 mL PBS. Invert to mix 10 times, vortex mix, let sit 2 minutes, invert to mix 10 more times. Check to make sure all suspended. If not, vortex mix and invert until fully suspended. • 2. Prepare 24-well plates • 3. […] Aliquot with 200 μL PNPP Conditions • 1. Old AP • 2. Old AP (1:10) • 3. Old AP (1:100) • 4. New AP • 5. Blank (PBS only) Procedure • 1. 24-well plates • a. Add 1 mL (using P1000, blue tips) of the prepared PBS-AP to the plate (for each condition) • b. Add 100 μL of the test material to the well, mix with the same pipette tip, dispose and repeat for the rest of the test materials • c. Wrap the plate in saran wrap and place into the container • d. […] To the prepared 96-well plate with 200 μL PNPP or PBS, add 20 μL from the 24-well plate • 3. Incubate for 1 hour • 4.

porcine skin = conditions: fresh porcine skin; 140 μL test chemical; R 1 and 2; >3A = outside readable range
Experimental: Our initial studies involved using fresh and frozen porcine skin “buttons”. These buttons were punched out of porcine skin (Spear Products, Cooopersburg, PA) using a […] biopsy punch tool. Three different kinds of skin buttons were prepared from fresh porcine skin, frozen porcine skin, and frozen porcine skin with the fatty layer removed. […] The next day, the tubes were taken out and vortexed and 500 μL of the solution was aliquoted into cuvettes to read at three different optical density wavelengths (OD190, OD290, OD300) to evaluate the best response.
Skin Preparation • 1. Thaw 2 pieces of frozen porcine skin • 2. Punch out buttons: 24 buttons in each tube filled with 40 mL PB S-Azide 96-well plate Preparation • 1. Plate layout for dosing:
Procedure • 1. Dose each tissue with 140 μL of test chemical • 2. […] Take out of incubator and vortex pulse 3× • 2. Aliquot 500 μL to cuvette and read results at OD190, OD290, and OD300
There were three readings done at an optical density of 190, 290, and 300 nm to evaluate the best response. […] To address the variable exposure conditions, our next studies involved placing a larger porcine skin section into a holder that exposes only the epidermis side with no potential for test chemical exposure from the backside or through the sides.

phosphatase = type: biochemical, porcine
Experimental: Our next studies involved applying the test substance (500 μL) directly to the epidermis side of previously frozen porcine skin (Spear Products, Coopersburg, PA) that is placed in a holder that only exposes the epidermis side for 30 minutes, adding phosphate buffered saline (PBS) with added sodium azide (metabolic inhibitor that ensure no viable tissue), then aliquoting into cuvettes to read at an optical density of 300 nm. […] So, at the end of the initial studies described above, almost out of frustration, we tried to probe for released phosphatase activity using p-Nitrophenyl phosphate disodium salt (PNPP; Sigma Aldrich, St. Louis, MO) substrate solution to detect any presence of phosphatase.
Preparation • 1. Thaw 2 pieces of frozen porcine skin • a. Punch out as many skin discs and mount in holders • 2. Label cuvettes (3 for each chemical) Procedure • 1. Add 500 μL of test chemical to holder; incubate at room temperate for 30 minutes • 2. After 30 minutes, add 2 mL of PBS-Azide to both the holder containing the test chemical; forcefully pipette and re-pipette 10 times • 3. From the holder, aliquot 400 μL into 3 cuvettes; forcefully pipette and re-pipette 3 times before dispensing into cuvettes Reading Results • 1. Measure at OD300 for all cuvettes
Skin corrosion by GHS Category 1 dermal corrosive chemicals results in the disintegration of the epidermis into the dermis.

alkaline phosphatase [6] = type: biochemical; remark: listed apart in the source
Experimental: For the new study, the alkaline phosphatase was suspended in phosphate buffered saline (PBS) to make the reaction reagent. Then, 100 μL of the test chemical is added directly into the corresponding wells on a 24-well plate with 1.25 mL of alkaline phosphatase reaction reagent already aliquoted.
Preparation • 1. Alkaline phosphatase reaction reagent • a. Take 1 vial of AP, add 1 mL of PBS, mix by pipette/re-pipette 10 times • b. To a 50 mL conical tube, add 1 mL of the AP solution prepared above and 40 mL of PBS • 2. Prepare two 24-well plates • 3. […] Aliquot with 200 μL PNPP and PBS • 4. Prepare glass vials Repeat Procedure from 1-3-23 • 1. 24-well plate • a. Add 1.25 mL from the prepared PBS-AP conical tube to each well (11 wells) • b. Add 100 μL of the test material to the well, mix with the same pipette tip, dispose and repeat for the rest of the test materials • c. Wrap the plate in saran wrap and place into the container • 2. […] To the prepared 96-well plate with 200 μL PNPP or PBS, add 20 μL from the 24-well plate • 4. Incubate for 1 hour • 5. […] 24-well plate • a. Add 1.25 mL from the prepared PBS-AP conical tube to each well (11 wells) • b. Add 100 μL of the test material to the well, mix with the same pipette tip, dispose and repeat for the rest of the test materials • c. After 10 minutes, mix each well • 2. To the prepared 96-well plate with 200 μL PNPP or PBS, add 20 μL from the 24-well plate • 3. […] Aliquot 200 μL from the 24-well plate to glass vials filled with 2 mL of PNPP

alkaline phosphatase [7] = experiment: Alkaline phosphatase experiment, third week: with and without discs; type: biochemical; conditions: 405 nm, 100 μL chemical, 18 hours 37° C., PNPP 1 hour
Description: Our next study focused on an in vitro method of detecting the potential of dermal corrosives to inhibit nonspecific phosphatases that may be released from the skin. We decided to test pure […] instead of relying on endogenous skin phosphatase. Alkaline phosphatase (Sigma Aldrich, St. Louis, MO) was purchased and suspended to make the reaction reagent (10,000 units). […] We note that the ratio used was 0.1 g/ml or 10% chemical—which is far in excess of any pharmaceutical applications. We further note that pharmaceutical enzyme inhibition tests, studies an use involve highly specific active site binding and these assays are conducted at ratios of micrograms-femtograms per ml. These studies are done at these ranges because these are the realistic concentrations for drug applications and therapeutics. […] So when a 50 Kg human consumes the tables, the tissues will be exposed at a 5 mg/50 kg=0.1 mg/kg=0.0000001 g/ml.
Next two quantitative methods were evaluated: 1) using the discs parts from our OptiSafe™ test method and 2) directly into the 24-well plate.
Preparation • 1. Alkaline phosphatase reaction reagent • a. Take 1 vial of AP, add 1 mL of PBS, mix by pipette/re-pipette 10 times • b. To a 50 mL conical tube, add 1 mL of the AP solution prepared above and 40 mL of PBS • 2. Prepare two 24-well plates (1 with discs, 1 without discs) • 3. […] Aliquot 200 μL PNPP and PBS Procedure • 1. Plate 1 (No Discs) • a. Add 1.25 mL from the prepared PBS-AP conical tube to each well (11 wells) • b. Add 100 μL of the test material to the well, mix with the same pipette tip, dispose and repeat for the rest of the test materials • c. Wrap the plate in saran wrap and place into the container • 2. Plate 2 (Discs) • a. Configure the 11 discs in the plate so the plate cover is stable • b. Add 1.25 mL from the prepared PBS-AP conical tube to each well (11 wells) • c. Add 100 μL of the test material to the center of the disc and repeat for the rest of the test materials • d. Put the plate cover on and place into the container • 3. […] Incubate for 1 hour Reading Results • 1. Measure at OD405

alkaline phosphatase [8] = type: biochemical; conditions: 3-hour exposure
[9] = skin, chemical lists of the experiments
[10] = 10 minutes test chemical exposure

Row | Compound | A2 - Results AVG (alkaline phosphatase [1]) | A2 - Results R1 (alkaline phosphatase [1]) | A2 - Results R3 (alkaline phosphatase [1]) | OD405 reading, 1:1000 ethanol solvent condition (FIG. 9B) (alkaline phosphatase [2]) | OD405 readings, buffered saline alkaline phosphatase reaction reagent, glass vials (FIG. 11B) (alkaline phosphatase [3]) | OD405 readings, ethanol alkaline phosphatase reaction reagent, glass vials (FIG. 11D) (alkaline phosphatase [3]) | solubility with water [4] | OD405 readings, original alkaline phosphatase 1:100 (FIG. 6D) (alkaline phosphatase [5]) | in vivo GHS (skin; [9]) | also measured
1 | CN(C)Cc1ccccc1 [N,N-Dimethylbenzylamine] | 0.570 | 0.588 | 0.539 | 0.587 | 3.360 and 3.238 and 3.273 | 3.429 and 3.249 and 3.164 | mostly insoluble with water | 3.431 and 3.502 and 3.61 |  | in vivo GHS (skin; rabbit, in vivo): Cat. 1C
2 | CCCCCCCN [n-Heptylamine] | 0.175 | 0.170 | 0.193 |  |  |  | mostly insoluble with water | 3.244 and 3.057 and 3.152 | Cat. 1B/1C | 
3 | CN(C)CCCNCCCN [Dimethyldipropylenetriamine] | 0.117 | 0.119 | 0.114 |  |  |  |  |  | Cat. 1A | OD190 (porcine skin): >3A; percent of phosphatase measured (optical density compared to the naïve condition), average (phosphatase; average of two readings): 20.6%; percent of phosphatase measured (optical density compared to the naïve condition) (phosphatase; single readings): 23.5% and 17.7%; raw optical density reading (PNPP), repeat without discs (FIG. 4) (alkaline phosphatase [6]; 405 nm, 18 hours 37° C. exposure, PNPP 1 hour): 0.132 and 0.128 and 0.127; 10-minute PNPP incubation readings (FIG. 5A) (alkaline phosphatase [6]; [10]): 3.500; 18-hour PNPP incubation readings (FIG. 5D) (alkaline phosphatase [6]; [10]): 0.110; Corrosive (skin; Yes/No): Yes; in vivo GHS (skin; skin, Tables 1A-1C and 2): Cat. 1A; raw optical density reading (PNPP), with discs (FIG. 3A) (alkaline phosphatase [7]; 1.25 mL reaction reagent (10,000 units)): 0.152 and 0.159 and 0.140; raw optical density reading (PNPP), without discs (FIG. 3B) (alkaline phosphatase [7]; 1.25 mL reaction reagent): 0.138 and 0.176 and 0.133
4 | CC(C)N(C)C [Dimethylisopropylamine] | 0.244 | 0.226 | 0.295 |  | 3.354 and 3.466 and 3.502 | 2.926 and 2.922 and 2.852 | mostly insoluble with water | 3.466 and 3.502 | Cat. 1B/1C | 
5 | ClCCCCBr [1-Bromo-4-chlorobutane] | 2.849 | 2.948 | 2.869 | 0.799 |  |  |  |  |  | OD405 reading, ethanol solvent, 10 μL dose, 30-minute PNPP (FIG. 7A) (alkaline phosphatase [8]; 10 μL into 90 μL): 3.349; OD405 reading, ethanol solvent, 50 μL dose, 30-minute PNPP (FIG. 7A) (alkaline phosphatase [8]; 50 μL into 50 μL): 0.700
6 | CSc1ccc(C=O)cc1 | 3.333 | 3.379 | 3.266 |  |  |  |  |  |  | OD405 reading, 1:100 ethanol solvent condition, 37° C. (alkaline phosphatase [2]; 37° C.): 0.857; OD405 reading, 1:100 ethanol solvent condition, room temperature (alkaline phosphatase [2]; room temperature): 2.243
